Data reported in US4933369A, “Dimethyl tyrosyl amide sulfides, sulfoxides and sulfones” (G. D. Searle & Co., priority 1988, dated 1990).

What was measured:
[1] = target: opiate receptors isolated from rat brain; test: Opiate binding assay (displacement of 3H-Naloxone); conditions: 3H-Naloxone 1NM, rat brain membranes, pH 7.4, 25° C., 60 min
Description: (§1) The test compounds were evaluated for their ability to displace the binding of ^3 H-Naloxone to opiate receptors isolated from rat brain. Male rats (Crl:CD)(SD)(BR) obtained from Charles River Laboratories (Portage, Mich.) were sacrificed by cervical dislocation. A purified homogenate of receptor membranes was prepared from the brains according to the method described by Chang and Cuatrecasas. Multiple Opiate Receptors: Enkephalins and Morphine Bind to Receptors of Different Specificity. J. Biol. Chem. 254, 2610-2618 (1979). The brains were homogenized in ten volumes of 0.32 M sucrose and centrifuged twice at 6,000×g for fifteen minutes. Following centrifugation of the supernatants at 40,000×g for thirty minutes, the pellets were resuspended in 5 mM tris HCl, and centrifuged at 6,000×g. The supernatant was centrifuged at 40,000×g. The resuspension in 5 mM tris and centrifugation was repeated twice. The final pellet was resuspended in two volumes of 50 mM tris HCl, (pH 7.4). The homogenate was assayed for protein content according to the method of Itzhaki and Gill (R. E. Itzhaki and D. N. Gill. A Micro-Biuret Method for Estimating proteins Anal. Biochem. 9, 401-410, 1964).
The binding of the test compounds to the receptor membrane preparation was measured using a modification of the method of Pert and Snyder (C. B. Pert and S. H. Snyder. Property of Opiate-Receptor Binding in Rat Brain. Proc. Natl. Acad. Sci. 70, 2243-2247, 1973). The receptor assay was run using a final concentration of 1NM^3 H-Naloxone and 0.5 mg/ml of homogenate protein. Levorphanol (1×10^-5 M) was used as the displacer for non-specific binding. The final concentration of the test compounds was 10^-5 M) The assay was run in 0.05 M tris HCl (pH 7.4). Total assayed volume was 1.0 ml.
(§2) Samples were incubated at 25° C. for sixty minutes, filtered over Whatman GF/C glass fiber filters and rinsed twice with 2.4 ml washes of ice-cold buffer. The filters were air dried at 50° C. for thirty minutes. After drying, 10 ml of PCS was added to the vial and radioactivity determined using a Tracore Analytic Mark III liquid scintillation counter with a counting efficiency of 48%.
The IC50 values, the concentration of the test compounds which inhibited ^3 H-Naloxone specific binding to the opiate receptor by 50%, were obtained from log-logit plots of concentration-response curves.

mouse = test: Writhing assay (phenylbenzoquinone-induced writhing, analgesia); format: in vivo, Male Charles River albino mice (CD-1/HAM/lLR); set-up: key: +: The test compound was rated active if the number of writhes in the drug treatment group was significantly less than the number of writhes in the saline treatment group as determined by a one-way analysis of variance; conditions: 30 min before phenylbenzoquinone, initial test dose 2 mg/kg
Description: Male Charles River albino mice (CD-1/HAM/lLR) weighing between 20 and 30 grams were used. Thirty minutes after subcutaneous or intragastric administration of the test compound (0.1 ml/10 gm body weight), 0.025% (w/x) phenylbenzoquinone was injected intraperitoneally (0.1 ml/10 gm body weight). Five minutes later, each mouse was placed in a large glass beaker and the number of writhes that occurred in the subsequent ten minutes is counted. A writhe consisted of dorsoflexion of the back, extension of the hind limbs and strong contraction of the abdominal musculature. The test compound was considered to have produced analgesia in a mouse if the number of writhes elicited by phenylbenzoguinone was equal to or less than 1/2 the median number of writhes recorded for the saline-treated group that day. The results were expressed as the number of mice (out of a possible 10) in which the test compound produced analgesia. […] If the initial test dose of 2 mg/kg inhibited writhing in greater than six out of ten mice, the effect of additional doses was evaluated and an ED50 value was calculated using a maximum likelihood function.

[2] = target: T1, opiate receptors isolated from rat brain (Rattus norvegicus, UniProt P33535); test: Opiate binding assay with (D)Ala^2Glyol^5 Enkephlin as radioactive ligand
T1 construct: A purified homogenate of receptor membranes was prepared from the brains; from tissue; host or cells: brain membranes of male Crl:CD(SD)BR rats (animals from Charles River Laboratories)
T1 sequence (P33535 whole entry): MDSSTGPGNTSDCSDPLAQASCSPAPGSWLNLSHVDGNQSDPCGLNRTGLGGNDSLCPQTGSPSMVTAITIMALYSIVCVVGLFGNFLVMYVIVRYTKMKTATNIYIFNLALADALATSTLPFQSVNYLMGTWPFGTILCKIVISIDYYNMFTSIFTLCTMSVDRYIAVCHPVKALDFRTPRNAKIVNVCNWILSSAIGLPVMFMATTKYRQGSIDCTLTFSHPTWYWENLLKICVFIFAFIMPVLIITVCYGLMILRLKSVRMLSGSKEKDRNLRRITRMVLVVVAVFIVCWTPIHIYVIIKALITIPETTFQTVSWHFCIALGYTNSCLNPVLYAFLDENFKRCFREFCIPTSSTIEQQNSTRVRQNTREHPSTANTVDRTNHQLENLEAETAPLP
Description: as §1, with “Male” for “The test compounds were evaluated for their ability to displace the binding of ^3 H-Naloxone to opiate receptors isolated from rat brain. Male”, “The final pellet was resuspended in two volumes of 50 mM tris HCl, (pH 7.4). The homogenate was assayed for protein content according to the method of Itzhaki and Gill (R. E. Itzhaki and D. N. Gill. A Micro-Biuret Method for Estimating proteins Anal. Biochem. 9, 401-410, 1964).” left out
The binding of the test compounds to the receptor membrane preparation was measured using a modification of the method of Pert and Snyder (C. B. Pert and S. H. Snyder. Property of Opiate-Receptor Binding in Rat Brain. Proc. Natl. Acad. Sci. 70, 2243-2247, 1973). […]
as §2, with “The filters were air dried at 50° C. for thirty minutes.” left out, “48%. […]” for “48%.”

`Cc1cc(O)cc(C)c1CC(N)C(=O)NCCSCCCc1ccccc1` (racemic) [Example 2, (±)α-amino-4-hydroxy-2,6-dimethyl-N-[2-[(3-phenylpropyl)thio]ethyl]benzenepropanamide] gave an IC50 [1] of 2.2 nM.
`Cc1cc(O)cc(C)c1CC(N)C(=O)NCCS(=O)(=O)CCCc1ccccc1` (racemic) [Example 3, (±)α-amino-4-hydroxy-2,6-dimethyl-N-[2-[(3-phenylpropyl)sulfonyl]ethyl]benzenepropanamide] was tested, and the “ACTIVE (writhing assay, subcutaneous dosing)” value (“ACTIVE” for short) (mouse) was “+” and the IC50 [1] was 0.8 nM.
In the case of `Cc1cc(O)cc(C)c1CC(N)C(=O)NCC[S+]([O-])CCCc1ccccc1` (racemic) [Example 4, (±)α-amino-4-hydroxy-2,6-dimethyl-N-[2-[(3-phenylpropyl)sulfinyl]ethyl]benzenepropanamide], the “ACTIVE” value (mouse) is reported as “+” and the IC50 [1] is reported as 2.8 nM.
With `Cc1cc(O)cc(C)c1CC(N)C(=O)NCCCSCCc1ccccc1` (racemic) [Example 5, (±) α-2,6-dimethyl-N-[3-[(2-phenylethyl)thio]propyl]benzenepropanamide] the “ACTIVE” value (mouse) was “+” and the IC50 [2] was 3.6 nM.
`Cc1cc(O)cc(C)c1CC(N)C(=O)NCCCS(=O)(=O)CCc1ccccc1` (racemic) [Example 6, (±)α-amino-4-hydroxy-2,6-dimethyl-N-[3-[(2-phenylethyl)sulfonyl]-propyl]benzenepropanamide] showed an IC50 [1] of 0.9 nM.
For `Cc1cc(O)cc(C)c1CC(N)C(=O)NCCCSCc1ccccc1` (racemic) [Example 7, (±)α-amino-4-hydroxy-2,6-dimethyl-N-[3-[(phenylmethyl)thio]propyl]benzenepropanamide], the “ACTIVE” value (mouse) was “+” and the IC50 [1] was 21 nM.
`Cc1cc(O)cc(C)c1CC(N)C(=O)NCCCCSCc1ccccc1` (racemic) [Example 8, (±)α-amino-4-hydroxy-2,6-dimethyl-N-[4-(phenylmethyl)thio]butyl]benzenepropanamide] was tested, and the “ACTIVE” value (mouse) was “+”.
Work on `Cc1cc(O)cc(C)c1C[C@H](N)C(=O)NCCCSc1ccccc1` [Example 9, (L)α-amino-4-hydroxy-2,6-dimethyl-N-[3-(phenylthio)propyl]benzenepropanamide] yielded an IC50 [2] of 20.9 nM.
